From ChEMBL document CHEMBL1147193, “New 5-substituted thiazolo[3,2-b][1,2,4]triazol-6-ones: synthesis and anticancer evaluation” (2007)

Tests used:
Format in all cases: functional
CAKI-1 = experiment: Growth inhibition of human CAKI1 cells after 48 hrs by SRB protein assay; conditions: CAKI-1, 48 h; for TGI: read-out: Log TGI (converted)
SK-OV-3 = experiment: Growth inhibition of human SK-OV-3 cells after 48 hrs by SRB protein assay; conditions: SK-OV-3, 48 h; for TGI: read-out: Log TGI (converted)
NCI-H23 = experiment: Growth inhibition of human NCI-H23 cells after 48 hrs by SRB protein assay; conditions: NCI-H23, 48 h; for TGI: read-out: Log TGI (converted)
SF-539 = experiment: Growth inhibition of human SF539 cells after 48 hrs by SRB protein assay; conditions: SF-539, 48 h; for TGI: read-out: Log TGI (converted)
HL-60 = experiment: Growth inhibition of human HL60 cells after 48 hrs by SRB protein assay; conditions: HL-60, 48 h; for TGI: read-out: Log TGI (converted)
LOX IMVI = experiment: Growth inhibition of human LOX IMVI cells after 48 hrs by SRB protein assay; conditions: for TGI: read-out: Log TGI (converted)
HOP-92 = experiment: Growth inhibition of human HOP92 cells after 48 hrs by SRB protein assay; conditions: HOP-92, 48 h; for TGI: read-out: Log TGI (converted)
MOLT-4 = experiment: Growth inhibition of human MOLT4 cells after 48 hrs by SRB protein assay; conditions: MOLT-4, 48 h; for TGI: read-out: Log TGI (converted)
UACC-62 = experiment: Growth inhibition of human UACC62 cells after 48 hrs by SRB protein assay; conditions: UACC-62, 48 h; for TGI: read-out: Log TGI (converted)
SF-268 [1] = experiment: Growth inhibition of human SF268 cells after 48 hrs by SRB protein assay; conditions: SF-268, 48 h; for TGI: read-out: Log TGI (converted)
786-0 = experiment: Growth inhibition of human 786-0 cells after 48 hrs by SRB protein assay; conditions: 786-0, 48 h; for TGI: read-out: Log TGI (converted)
DU-145 = experiment: Growth inhibition of human DU145 cells after 48 hrs by SRB protein assay; conditions: DU-145, 48 h; for TGI: read-out: Log TGI (converted)
IGROV-1 = experiment: Growth inhibition of human IGROV1 cells after 48 hrs by SRB protein assay; conditions: IGROV-1, 48 h; for TGI: read-out: Log TGI (converted)
HCT-15 = experiment: Growth inhibition of human HCT15 cells after 48 hrs by SRB protein assay; conditions: HCT-15, 48 h; for TGI: read-out: Log TGI (converted)
EKVX = experiment: Growth inhibition of human EKVX cells after 48 hrs by SRB protein assay; conditions: for TGI: read-out: Log TGI (converted)
RXF 393 = experiment: Growth inhibition of human RXF393 cells after 48 hrs by SRB protein assay; conditions: RXF 393, 48 h; for TGI: read-out: Log TGI (converted)
K562 = experiment: Growth inhibition of human K562 cells after 48 hrs by SRB protein assay; conditions: K562, 48 h; for TGI: read-out: Log TGI (converted)
SF-268 [2] = experiment: Anticancer activity against human SF268 cells assessed as growth of cells at 100 uM relative to untreated cells
SR = experiment: Growth inhibition of human SR cells after 48 hrs by SRB protein assay; conditions: for TGI: read-out: Log TGI (converted)
A498 = experiment: Growth inhibition of human A498 cells after 48 hrs by SRB protein assay; conditions: A498, 48 h; for TGI: read-out: Log TGI (converted)
SNB-19 = experiment: Growth inhibition of human SNB19 cells after 48 hrs by SRB protein assay; conditions: SNB-19, 48 h
SNB-75 = experiment: Growth inhibition of human SNB75 cells after 48 hrs by SRB protein assay; conditions: SNB-75, 48 h

Compound: O=C(CC1Sc2ncnn2C1=O)Nc1ccc(Br)cc1 (configuration not stated)
- GI50 (CAKI-1): 20.4 µM
- TGI (CAKI-1): 43.7 µM
- GI50 (SK-OV-3): > 100 µM
- TGI (SK-OV-3): > 100 µM
- GI50 (NCI-H23): 20.9 µM
- TGI (NCI-H23): 43.7 µM
- GI50 (SF-539): 20.9 µM
- TGI (SF-539): 46.8 µM
- GI50 (HL-60): 19.5 µM
- TGI (HL-60): > 100 µM
- GI50 (LOX IMVI): 16.2 µM
- TGI (LOX IMVI): 31.6 µM
- GI50 (HOP-92): 22.4 µM
- TGI (HOP-92): 49 µM
- GI50 (MOLT-4): 25.1 µM
- TGI (MOLT-4): 97.7 µM
- GI50 (UACC-62): > 100 µM
- TGI (UACC-62): > 100 µM
- GI50 (SF-268 [1]): > 100 µM
- TGI (SF-268 [1]): > 100 µM
- GI50 (786-0): 16.6 µM
- TGI (786-0): 30.2 µM
- GI50 (DU-145): 38.9 µM
- TGI (DU-145): > 100 µM
- GI50 (IGROV-1): 34.7 µM
- TGI (IGROV-1): > 100 µM
- GI50 (HCT-15): 14.8 µM
- TGI (HCT-15): 28.2 µM
- GI50 (EKVX): 31.6 µM
- TGI (EKVX): > 100 µM
- GI50 (RXF 393): 12.9 µM
- TGI (RXF 393): 31.6 µM
- GI50 (K562): 26.3 µM
- TGI (K562): 79.4 µM
- Activity (SF-268 [2]): 100%
- GI50 (SR): 18.2 µM
- TGI (SR): > 100 µM
- GI50 (A498): 12.3 µM
- TGI (A498): 57.5 µM

Compound: O=c1/c(=C/c2ccc(F)cc2)sc2ncnn12
- GI50 (CAKI-1): 69.2 µM
- TGI (CAKI-1): > 100 µM
- GI50 (SK-OV-3): > 100 µM
- TGI (SK-OV-3): > 100 µM
- GI50 (SF-539): 30.2 µM
- TGI (SF-539): 93.3 µM
- GI50 (HL-60): 6.46 µM
- TGI (HL-60): > 100 µM
- GI50 (LOX IMVI): 37.2 µM
- TGI (LOX IMVI): > 100 µM
- GI50 (HOP-92): 47.9 µM
- TGI (HOP-92): > 100 µM
- GI50 (SNB-19): 63.1 µM
- TGI (SNB-19; read-out: Log TGI (converted)): > 100 µM
- GI50 (MOLT-4): 38.9 µM
- TGI (MOLT-4): > 100 µM
- GI50 (UACC-62): 66.1 µM
- TGI (UACC-62): > 100 µM
- GI50 (SF-268 [1]): 33.9 µM
- TGI (SF-268 [1]): > 100 µM
- GI50 (786-0): 51.3 µM
- TGI (786-0): > 100 µM
- GI50 (DU-145): 39.8 µM
- TGI (DU-145): > 100 µM
- GI50 (IGROV-1): 57.5 µM
- TGI (IGROV-1): > 100 µM
- GI50 (HCT-15): 63.1 µM
- TGI (HCT-15): > 100 µM
- GI50 (EKVX): 83.2 µM
- TGI (EKVX): > 100 µM
- GI50 (RXF 393): 46.8 µM
- TGI (RXF 393): 100 µM
- GI50 (K562): 38.9 µM
- TGI (K562): > 100 µM
- GI50 (SNB-75): 58.9 µM
- TGI (SNB-75; read-out: Log TGI (converted)): > 100 µM
- Activity (SF-268 [2]): 70%
- GI50 (SR): 15.5 µM
- TGI (SR): > 100 µM
- GI50 (A498): 61.7 µM
- TGI (A498): > 100 µM

Compound: COc1ccc(NC(=O)CC2Sc3ncnn3C2=O)cc1 (configuration not stated)
- GI50 (CAKI-1): 18.6 µM
- TGI (CAKI-1): 34.7 µM
- GI50 (SK-OV-3): > 100 µM
- TGI (SK-OV-3): > 100 µM
- GI50 (NCI-H23): 20 µM
- TGI (NCI-H23): 37.2 µM
- GI50 (SF-539): 26.9 µM
- TGI (SF-539): 55 µM
- GI50 (HL-60): 27.5 µM
- TGI (HL-60): > 100 µM
- GI50 (LOX IMVI): 21.9 µM
- TGI (LOX IMVI): 42.7 µM
- GI50 (HOP-92): 21.9 µM
- TGI (HOP-92): 49 µM
- GI50 (MOLT-4): 28.8 µM
- TGI (MOLT-4): 70.8 µM
- GI50 (UACC-62): > 100 µM
- TGI (UACC-62): > 100 µM
- GI50 (SF-268 [1]): > 100 µM
- TGI (SF-268 [1]): > 100 µM
- GI50 (786-0): 16.6 µM
- TGI (786-0): 30.9 µM
- GI50 (DU-145): 57.5 µM
- TGI (DU-145): > 100 µM
- GI50 (IGROV-1): 67.6 µM
- TGI (IGROV-1): > 100 µM
- GI50 (HCT-15): 24.5 µM
- TGI (HCT-15): 52.5 µM
- GI50 (EKVX): 35.5 µM
- TGI (EKVX): > 100 µM
- GI50 (RXF 393): 15.5 µM
- TGI (RXF 393): 41.7 µM
- GI50 (K562): 31.6 µM
- TGI (K562): > 100 µM
- Activity (SF-268 [2]): 107%
- GI50 (A498): 21.4 µM
- TGI (A498): 57.5 µM
